Test results as given in patent publication US20230027219A1, “Skin Care Compositions and Methods of Use Thereof” (Unigen, Inc., priority 2013, published 2023).
Where two headings read alike, the source gives them in different places.

What was measured:
3T3-L1 cells = assay: Lipid accumulation assay in adipocytes (Oil red O staining); type: cell-based, Mouse; conditions: for inhibition at 0.005 µg/mL / inhibition at 0.01 µg/mL / inhibition at 0.05 µg/mL / inhibition at 0.1 µg/mL / inhibition at 0.5 µg/mL: Mus musculus, read-out: Inhibition (%) of lipid accumulation; for effect on lipid accumulation, in words: over the doses tested, 3T3-L1, Oil red O
Description: Mouse embryo fibroblast 3T3-L1 cells (purchased from American Type Culture Collection) were cultured in Dulbecco's modified Eagle's medium (DMEM) (GIBCO) containing 10% bovine calf serum until confluent. Two days post-confluence (D0), the cells were stimulated to differentiate into an adipocyte-like phenotype by adding DMEM containing 10% fetal bovine serum (FBS), 5 μg/ml insulin, 0.5 mM 3-isobutyl-1-methylxanthine (IBMX) and 1 μM dexamethasone for two days (D2). Cells were then maintained in 10% FBS/DMEM medium with 5 μg/ml insulin for another two days (D4), followed by culturing with 10% FBS/DMEM medium for four days (D8). Test samples at various concentrations were added to the cells from Day 0 to Day 8 of adipogenesis, during which the medium was exchanged every 2 days with fresh medium containing the test sample. On Day 8, lipid droplets in cells were stained with Oil red O (ORO) and signal measured at 510 nm.
Briefly, three concentrations of Annona AS-EE3 (100% EtOH) and AS-EE4 (70% EtOH) extracts (0.1, 0.5 and 1 μg/ml) and positive control TNF-α(10 ng/mL) were used to treat 3T3-L1 cells during the differentiation period (from Day 0 to Day 8 of adipogenesis). Cell culture medium containing extracts was changed every 2 days and ORO staining was used to detect lipid droplet accumulation in cells.
Three concentrations of the Annona hexane extracts (0.05, 0.1 and 0.5 μg/ml) were used to treat 3T3-L1 cells during the differentiation period (from Day 0 to Day 8 of adipogenesis), then stained for lipid accumulation on Day 8.
Similar to the previous extracts, each EtOAc extract was tested at three doses of 0.05 μg/ml, 0.1 μg/ml and 0.5 μg/ml.
Similar to the previous extracts, each of the CO2 extracts were tested at the following six doses of 0.0625 μg/ml, 0.125 μg/ml, 0.25 μg/ml, 0.35 μg/ml, 0.5 μg/ml, and 1 μg/ml.

[1] = test system: human subcutaneous preadipocytes; assay: Differentiation assay in human subcutaneous adipocytes (glycerol liberated from triglyceride); type: cell-based
Description: The inhibition of lipid accumulation and differentiation assays examined the ability of compounds to inhibit the differentiation of human subcutaneous preadipocytes into adipocytes. Cells were grown to confluency such that all cells were synchronized and then differentiated. Cryopreserved preadipocytes were passaged with preadipocyte medium (PM-1). Cells were fed every other day with PM-1 until confluent. To induce differentiation, PM-1 medium was replaced with differentiation medium (DM-2) including insulin, dexamethasone, isobutyl methylxanthine, PPAR-γ agonist, TNF-α and test compounds at day two. After 7 days, the medium was changed to Adipocyte medium without the test compounds. On day 16 of the assay, cytotoxicity and lipid accumulation were measured. Medium was removed, leaving 50 μl in each well. 10 μl Cell Titer Blue reagent was added to each well. Cells were incubated at 37° C. for 2 hours. […] Fluorescence was measured at excitation 560 nm/emission 590 nm. […] The optical density was read at 540 nm after 15 minutes. […]
The lipid accumulation assay of Example 28 was carried out with Annona squamosa extracts. […] After 2 weeks of treatment, cells were washed with PBS, lysed and triglyceride measured by total TG assay kit (Zen-bio). The reagents contain microbial lipase and the amount of glycerol liberated from triglyceride was measured. […]

3T3-L1 pre-adipocytes = assay: Intracellular triglyceride (TG) content assay; type: cell-based, Mouse; conditions: 10 ng/ml; 3T3-L1, 8 days
Description: […] The cells were washed with PBS, scraped with homogenizing solutions. The residual cell lysate was centrifuged at 3000 g for 5 min to remove fat layers. The supernatants were assayed. The triglyceride levels were measured by using a commercial kit according to the manufacturer's instructions (#10010303, Cayman Chem., USA). As adipocytes differentiate, their intracellular levels of triglyceride increase continuously.

| Compound | inhibition at 0.005 µg/mL (3T3-L1 cells; 0 h, 0.005 μg/ml, 3T3-L1, treated Day 0-8, Oil red O) [%] | inhibition at 0.01 µg/mL (3T3-L1 cells; 0 h, 0.01 μg/ml, 3T3-L1, treated Day 0-8, Oil red O) [%] | inhibition at 0.05 µg/mL (3T3-L1 cells; 0 h, 0.05 μg/ml, 3T3-L1, treated Day 0-8, Oil red O) [%] | inhibition at 0.1 µg/mL (3T3-L1 cells; 0 h, 0.1 μg/ml, 3T3-L1, treated Day 0-8, Oil red O) [%] | inhibition at 0.5 µg/mL (3T3-L1 cells; 0 h, 0.5 μg/ml, 3T3-L1, treated Day 0-8, Oil red O) [%] | effect on lipid accumulation, in words (3T3-L1 cells) | inhibition at 0.005 µg/mL (3T3-L1 cells; 3T3-L1, 0 h) [%] | inhibition at 0.01 µg/mL (3T3-L1 cells; 3T3-L1, 0 h) [%] | inhibition at 0.05 µg/mL (3T3-L1 cells; 3T3-L1, 0 h) [%] | inhibition at 0.1 µg/mL (3T3-L1 cells; 3T3-L1, 0 h) [%] | inhibition at 0.5 µg/mL (3T3-L1 cells; 3T3-L1, 0 h) [%] | Concentration of Glycerol ([1]; 0.01 μg/ml, control 208.28) [µM] | Concentration of Glycerol ([1]; TNF-α 0.01 μg/mL, control 208.28 (Table 32)) | Inhibition (%) of intracellular triglyceride level (3T3-L1 pre-adipocytes) [%] |
| --- | --- | --- | --- | --- | --- | --- | --- | --- | --- | --- | --- | --- | --- | --- |
| C=C1C[C@@]23CC[C@H]4[C@@](C)(CCC[C@@]4(C)C(=O)O)[C@@H]2CC[C@@H]1C3 [SA2, kaurenoic acid] | 2 ± 21.9 | 0 | 9.8 ± 13.6 | 12.6 ± 11.7 | 7.8 ± 17.1 | weaker effect | – | – | – | – | – | – | – | – |
| CCCCCCC(O)CCCC(O)C1CCC(C2CCC(C(O)CCCCCCCCCCCCC3=CC(C)OC3=O)O2)O1 (stereo not drawn) [SA1, Squamocin] | – | – | – | – | – | high efficacy in a dose dependent manner | 10.7 ± 10.9 | 37.8 ± 4.4 | 72.3 ± 3.1 | 71.6 ± 1.9 | 66.7 ± 4.7 | – | – | – |
| TNF-α [reference compound] | – | – | – | – | – | – | – | – | – | – | – | 4.40 | 4.40 | 55.1 |
